# Experimental data as given in patent publication US20120301895A1, “METHODS OF MODULATING BINDING OF SON OF SEVENLESS TO PHOSPHATIDIC ACID AND IDENTIFYING COMPOUNDS THAT MODULATE SUCH BINDING” (THE RESEARCH FOUNDATION OF STATE UNIVERSITY OF NEW YORK, priority 2007, published 2012).
# Columns and labels:
# Ras = Ras activation pull-down assay in Cos1 cells transfected with HA-tagged Ras and Sos; format: cell-based
# Procedure: In FIG. 14A, MDA-MB-231 cells were plated and then placed in media containing 0.5% media 24 hr later. 24 hr later, the cells were treated with either DMSO or honokiol (20 μM) as indicated for 2 hr. At this point the cells were harvested and lysates were prepared and treated with the immobilized Ras binding domain of Raf1 as in FIGS. 12A-C. Ras-GTP bound to the Raf1 binding domain was recovered and subjected to Western blot analysis using the Pan-Ras antibody. Total Ras in the cell lysates and actin levels were also examined by Western blot analysis. In FIG. 14B, MDA-MB-231 cells were plated and 24 hr later were shifted to media containing 0.5% serum. The cells were then treated with EGF (200 ng/ml) for 10 min. The cells were also treated with honokiol (20 μM) prior to the addition of EGF for the times indicated. The levels of GTP-bound Ras, total Ras, and actin were then determined as in FIG. 14A. In FIG. 14C, Cos1 cells were transfected with plasmids expressing HA-tagged Ras (50 ng) and Sos (500 ng) for 24 hours. The cells were placed in serum free media overnight in the presence of increasing concentration of honokiol. Cells were then collected and Ras activation was determined using the pull-down assay as above. Levels of Ras-GTP, Sos, and Ras were determined by Western blot analysis using an antibody that recognized HA. In FIG. 14D, Cos1 cells were tranfected with the plasmid expressing HA-tagged Ras (50 ng) for 24 hours. […] Cells were then stimulated with 100 ng/ml EGF for the indicated times (min) and Ras activation was determined as in FIG. 14A. […] Cells were then stimulated with 100 ng/ml EGF for the indicated times (min) and Ras activation was determined as in FIG. 14A. […]
# To further establish that honokiol was suppressing Ras activation, the effect in Cos1 cells was examined where background Ras activation was lower. […] 24 hr later, the cells were then shifted to serum-free conditions in the presence of increasing concentrations of honokiol and the levels of Ras, Sos, and GTP-bound Ras was evaluated. […]
# MDA-MB-231 cells = experiment: Cell viability (trypan blue) and PARP cleavage in MDA-MB-231 cells; format: cell-based, human; conditions: honokiol 20 μM
# Procedure: MDA-MB-231 cells were plated in DMEM with 10% serum for 48 hr then changed to DMEM with either 10% or 0.5% serum overnight as indicated. Honokiol (20 μM) or control ethanol was then added either at the time of changing media (24 hr time point), or 4 hr prior to harvesting (4 hr time point) as indicated. The cells were then examined for cell viability and PARP cleavage as described previously (Chen et al., “Alternative Phospholipase D/mTOR Survival Signal in Human Breast Cancer Cells,” Oncogene 24:672-9 (2005), which is hereby incorporated by reference in its entirety). The Western blot is representative of at least three independent experiments. The error bars for cell viability represent the standard deviation for triplicate samples from a representative experiment repeated three times.
# Cell viability was determined by trypan blue exclusion. After various treatments, cells were harvested, washed, and treated with trypan blue at a concentration of 0.4% w/v. After 10 min, trypan blue uptake (dead cells) was determined by counting on a hemocytometer. Apoptosis was evaluated by examination of cleavage of the caspase 3 substrate PARP as described previously (Chen et al., “Alternative Phospholipase D/mTOR Survival Signal in Human Breast Cancer Cells,” Oncogene 24:672-9 (2005), which is hereby incorporated by reference in its entirety).
# The effect of honokiol on cell viability and cleavage of the caspase 3 substrate poly-(ADP-ribose) polymerase (“PARP”)—an indicator of apoptotic cell death—was examined in the MDA-MB-231 and 786-0 cells. The effect of honokiol on cell viability and PARP cleavage in 0.5% serum was examined after 4 hr and 24 hr honokiol treatment and in 10% serum after 24 hr honokiol treatment in the MDA-MB-231 cells. […] Importantly, the cells were still viable after 4 hr of honokiol treatment—the time point used in FIGS. 12 and 13 where the effect of honokiol upon PLD activity and on S6K and 4E-BP1 phosphorylation was examined.
smiles,measurement,setting,value
"C=CCc1ccc(O)c(-c2ccc(O)c(CC=C)c2)c1 [honokiol, Honokiol]",Ras-GTP levels,"Ras; Cos1 cells with excess Sos, serum free overnight, at concentrations of 20 μM and higher",strongly suppressed
same,ability of EGF to increase the level of GTP-bound Ras,"Ras; Cos1 cells, endogenous Sos, ectopic Ras, honokiol 50 μM, EGF 100 ng/ml",suppressed
same,effect on EGF-induced Ras activation when ectopically expressed Sos was introduced,"Ras; Cos1 cells, honokiol 50 μM, EGF 100 ng/ml",more pronounced
same,cell viability,"MDA-MB-231 cells; 4 hr, 0.5% serum",still viable
same,PARP cleavage,"MDA-MB-231 cells; 24 hr, 0.5% serum",increased
same,cell viability,"MDA-MB-231 cells; 24 hr, 0.5% serum",reduced
same,PARP cleavage increased,"MDA-MB-231 cells; 24 hr, 10% serum",not
same,cell viability reduced,"MDA-MB-231 cells; 24 hr, 10% serum",not
